# Results published in patent US20220089655A1, “NOVEL POLYPEPTIDE-MODIFYING ENZYMES AND USES THEREOF” (ETH ZURICH, priority 2018, published 2022).
# Starred links: 1 amine or outer side, 2 acyl side, 3 side chain; linkers in the order of their positions; H or OH if unused. Non-standard residues stand in square brackets, D forms with d. No end group written: not given here. *: point of attachment. X1 = CC(C)C(C)[C@H](N[*:1])C(=O)[*:2]; Ile(3-Me) = CCC(C)(C)[C@H](N)C(=O)O; d(aThr) = C[C@@H](O)[C@@H](N)C(=O)O; Butanoyl(2-oxo) = CCC(=O)C(=O)*; Tle = CC(C)(C)[C@H](N)C(=O)O
# Experiments:
# fungi = test: Activity towards fungi
# [1] = Cytotoxic assay (MTT) against HeLa cells; format: cell-based; conditions: 3 days incubation, MTT readout
# Procedure: The activity of aeronamide A was measured against HeLa cells. Stocked HeLa cells were resuspended in 10 mL HEPES buffered high glucose Dulbecco's Modified Eagle Medium (DMEM) supplemented with GlutaMAX (Gibco). Additionally, the medium contained 10% fetal calf serum (FCS) and […] gentamycin. The cells were centrifuged for 5 min at 1000×g and room temperature. The medium was discarded and the cells resuspended in 10 mL fresh medium. The cells were put in a culture dish and incubated for 3-4 days at 37° C. The cells were checked under the microscope and treated further only when 60-80% of the surface was covered with cells. The medium was removed from the culture flask and the cells were washed with 10 mL phosphate buffered saline (PBS). The PBS was discarded and the cells treated with 2 mL Trypsin-EDTA solution. When the cells were detached, 10 mL of medium was added and centrifuged for 5 min at 1000×g and room temperature. The supernatant was discarded and 10 mL fresh medium were added. 2 mL of the cell suspension were put in a fresh culture flask containing 10 mL medium. Cells healthy enough for cytotoxicity assays were counted and diluted to a 10,000 cells/mL solution. 96 well plates were filled with 200 μL cell suspension per well. All plates were incubated overnight at 37° C. […] Absorbance was measured at 570 nm and IC50 was calculated using GraphPad Prism 6 (GraphPad).
# bacteria = test: Activity towards bacteria
substance,measurement,setting,value
{Butanoyl(2-oxo)}-[Ile(3-Me)][dA][Tle][dV][X1][dV]A[dV][Tle]GA[dA]A[dA]A[dV][Tle][d(aThr)]Y[dL]G[dA]A[dD](NHMe)[Tle][dV]G[dA]A[dD](NHMe)G[d(aThr)][Tle][d(aThr)]A[dD](NHMe)A[dV]A[dD](NHMe)T[dD](NHMe)A[dV]A [Aeronamide A],cytotoxic activity towards fungi,fungi,not towards the bacteria and fungi
same,IC50,[1],1.48 nM
same,cytotoxic activity towards bacteria,bacteria,not towards the bacteria and fungi
